The record followed here is patent US20190211020A1 (Agency for Science, Technology and Research, priority 2012, published 2019).

Entries after “also recorded” stand apart in the source; their conditions may differ. Read-outs that look alike come from different tables or passages of the source. Where only a bound is given, the exact number is not on record here.

The test system of assay [1] is eIF4G levels in brain sections from Nlgn3 knock-out mice. Put plainly: Immunoblot of eIF4G in brain slices of Nlgn3 knock-out mice. The following applies: 40 μM CGP57380 or 50 nM ETC7168. Also noted: species or system mouse. The method, then:
(§1) For biochemical analyses mice were sacrificed by CO2 inhalation, the cerebellum dissected and rapidly placed in a vibratome chamber and sectioned at 300 μm in cold oxygenated aCSF (in mM: 125 NaCl, 2.5 KCl, 1 MgCl2, 2 CaCl2, 1.25 NaH2PO4, 20 Glucose, 26 NaHCO3, 95% O2/5% CO2). Slices obtained were maintained at 33° C. in oxygenated aCSF and treated with 40 μM CGP57380 or 50 nM ETC7168 for 45 mins and tissues were subsequently snap frozen in liquid nitrogen. Tissues were lysed in 25 mM Tris-HCl, 150 mM NaCl, 1% Triton, 0.2% SDS, 5 mM EDTA, 2 mM DTT, 1 mM NaF, 1 mM Na3VO4 containing protease inhibitor cocktail. The soluble fractions were analyzed by immunoblotting with primary antibodies for 24 hrs at 4° C. followed by detection with secondary antibodies for enhanced chemoluminescent detection. Impact of MNK inhibitors on autism-related behavior was tested in a knock-out mouse model for autism. Nlgn3 knock-out mouse model a human mutation identified in patients with autism^73-74. Compounds were applied in DMSO using intraperitoneal injection in adult male mice (2-4 months of age). Two injections were performed, the first 30 h and a second one 5 h before testing. Behavioral testing was performed using a well-accepted test for autism that consists of quantitative analysis of ultrasonic vocalizations emitted by male mice exposed to females in estrous^75. The apparatus consisted of an arena (40 cm×20 cm) surrounded by 30-cm-high walls made of grey plastic and equipped with a microphone and a video camera. Prior to testing, the estrous cycle of each female mouse was assessed and only females in estrous were kept for testing. Male mice were acclimatized for 3 min in the chamber. Subsequently a female in estrous was introduced in the arena, and ultrasonic vocalizations were recorded for 3 min using the Avisoft system (Avisoft Bioacoustics) with a frequency bandwidth of 30 kHz to 100 kHz. The number and length of ultrasonic vocalizations were quantified. All animal experiments were approved by the cantonal veterinary office Basel-Stadt, Switzerland.
For orientation: In western blotting, separated proteins are transferred to a membrane and probed.

Assay [2] concerns K562 cells (myelogenous leukemia) over-expressing eIF4E. The experiment in a line: Cell cytotoxicity assay (CellTiter-Glo), K562. Type of assay: cell-based. The conditions noted are these: for IC50: Homo sapiens, cell viability. The method, then:
(§2) Cancer cell lines, MV-4-11 (leukemia), P116.c139 (acute T cell leukemia) and D1.1 (acute T cell leukemia), were purchased from ATCC and cultured according to supplier's recommendations. K562 cells (myelogenous leukemia) over-expressing eIF4E, were also used for the cytotoxicity assay. For cells treated for 48 hours, 5000 cells were seeded in 70 μl of growth medium in black, flat-bottom 96-well plate. For cells treated for six days, 1000 cells were seeded in 70 μl of growth medium in black, flat-bottom 96-well plate. […] 50 μl of the diluted compounds was added to the cells and incubated at 37° C. in 5% CO2. After 48 hours or six days treatment, cell viability was determined by CellTiter-Glo Luminescent Cell Viability Assay (Promega, Madison, Wis.). 120 μl of the reagent was added to the cells and luminescence was measured using Tecan Safire Reader. Data was analysed with Graphpad Prism software and the figures represented indicate the half maximal inhibitory concentration (IC50). Error bars denote standard deviation (SD).
Background: In ATP-based viability assays light output follows the ATP content of the culture.

In the next assay the test system is Nlgn3 knock-out mice. The experiment in a line: Ultrasonic vocalization assay in Nlgn3 knock-out mice (autism model). Type of assay: in vivo, mouse. The following applies: 50 microgram/kg intraperitoneal, 30 h and 5 h before testing. The method, then:
as §1, with “Impact of MNK inhibitors on autism-related behavior was tested in a knock-out mouse model for autism. Nlgn3 knock-out mouse model a human mutation identified in patients with autism^73-74. Compounds were applied in DMSO using intraperitoneal injection in adult male mice (2-4 months of age). Two injections were performed, the first 30 h and a second one 5 h before testing.” left out, “The apparatus consisted of an arena (40 cm×20 cm) surrounded by 30-cm-high walls made of grey plastic and equipped with a microphone and a video camera.” left out, “Male mice were acclimatized for 3 min in the chamber.” left out, “All animal experiments were approved by the cantonal veterinary office Basel-Stadt, Switzerland.” left out

Assay [3] concerns D1.1 (acute T cell leukemia). The experiment in a line: Cell cytotoxicity assay (CellTiter-Glo), D1.1. The conditions noted are these: T-cell, cell viability. Type of assay: cell-based. The protocol: as §2
In another assay the target is T1, BCR-ABL (Homo sapiens, UniProt P00519).
T1 construct: host or cells: K562; the other entry of the earlier key: BCR (P11274, Breakpoint cluster region protein)
The experiment in a line: Western blot of CrK1 phosphorylation (BCR-ABL activity) in K562 cells. The format is cell-based. The protocol: (§3) K562 cell line was obtained from the ATCC, and grown in RPMI supplemented with 10% FCS, L-glutamine, and penicillin/streptomycin.
(§4) Exponentially growing cells were plated at 2×10^5 cells/ml, and whole cell lysate processed for western blot analysis using antibodies recognizing eIF4E, phospho-eIF4E (Cell signaling Technology),

Assay [4] relates to eIF4E phosphorylation in K562 cells. Put plainly: Western blot of eIF4E phosphorylation in K562 cells. Type of assay: cell-based. The following applies: various concentrations, 24 h. The method, then:
as §3, §4

The subject of a further assay is MV-4-11 (leukemia). The experiment in a line: Cell cytotoxicity assay (CellTiter-Glo), MV-4-11. The format is cell-based. The following applies: Homo sapiens, cell viability. The method, then:
as §2

Assay [5] relates to MV-4-11, P116.c139 and D1.1 cell lines. Put plainly: Cell cytotoxicity assay, the three test cell lines taken together. The format is cell-based. The following applies: Homo sapiens, MV4-11; regardless of the treatment duration (48 hours or 6 days). The method, then: as §2
The subject of assay [6] is nuclear active beta-catenin in BC-CML primary cells. Put plainly: Immunofluorescence of nuclear active beta-catenin in BC-CML primary cells. The format is cell-based, human. The text has this:
Cord Blood (CB) samples were purchased from the Singapore Cord Blood bank. CML samples were the Singapore General Hospital after signed informed consent under local IRB-approved procedures. MNCs were obtained using Ficoll separation, and CD34^+ cells selected by immunomagnetic beads (Miltenyi Biotech, Germany).
Cells (1×10^5) were cytospun onto glass slides, fixed with 4% paraformaldehye, and stained with mouse monoclonal antibodies against activated β-catenin (clone 8E7, Millipore, UK), or rabbit monoclonal antibodies against phospho-eIF4E S209 (EP2151Y, Abcam, UK). Slides were then stained with either PE-conjugated anti-mouse or FITC-conjugated anti-rabbit antibodies. Images were obtained with the use of a fluorescence microscope (Olympus IX71S1F3) at 40× magnification.

In assay [7] the test system is eIF4E phosphorylation in cerebellar neurons in brain sections. Put plainly: Immunoblot of phospho-eIF4E in mouse cerebellar brain slices. The following applies: 40 μM CGP57380 or 50 nM ETC7168 for 45 mins. The method, then:
as §1, with “Impact of MNK inhibitors on autism-related behavior was tested in a knock-out mouse model for autism. Nlgn3 knock-out mouse model a human mutation identified in patients with autism^73-74. Compounds were applied in DMSO using intraperitoneal injection in adult male mice (2-4 months of age). Two injections were performed, the first 30 h and a second one 5 h before testing.” left out, “The apparatus consisted of an arena (40 cm×20 cm) surrounded by 30-cm-high walls made of grey plastic and equipped with a microphone and a video camera.” left out, “Male mice were acclimatized for 3 min in the chamber.” left out, “All animal experiments were approved by the cantonal veterinary office Basel-Stadt, Switzerland.” left out

For assay [8], the system named is P116.c139 (acute T cell leukemia). Put plainly: Cell cytotoxicity assay (CellTiter-Glo), P116.c139. The format is cell-based. The following applies: T-cell, cell viability. The protocol:
as §2

T1 sequence (P00519 with tags, fused parts or gaps): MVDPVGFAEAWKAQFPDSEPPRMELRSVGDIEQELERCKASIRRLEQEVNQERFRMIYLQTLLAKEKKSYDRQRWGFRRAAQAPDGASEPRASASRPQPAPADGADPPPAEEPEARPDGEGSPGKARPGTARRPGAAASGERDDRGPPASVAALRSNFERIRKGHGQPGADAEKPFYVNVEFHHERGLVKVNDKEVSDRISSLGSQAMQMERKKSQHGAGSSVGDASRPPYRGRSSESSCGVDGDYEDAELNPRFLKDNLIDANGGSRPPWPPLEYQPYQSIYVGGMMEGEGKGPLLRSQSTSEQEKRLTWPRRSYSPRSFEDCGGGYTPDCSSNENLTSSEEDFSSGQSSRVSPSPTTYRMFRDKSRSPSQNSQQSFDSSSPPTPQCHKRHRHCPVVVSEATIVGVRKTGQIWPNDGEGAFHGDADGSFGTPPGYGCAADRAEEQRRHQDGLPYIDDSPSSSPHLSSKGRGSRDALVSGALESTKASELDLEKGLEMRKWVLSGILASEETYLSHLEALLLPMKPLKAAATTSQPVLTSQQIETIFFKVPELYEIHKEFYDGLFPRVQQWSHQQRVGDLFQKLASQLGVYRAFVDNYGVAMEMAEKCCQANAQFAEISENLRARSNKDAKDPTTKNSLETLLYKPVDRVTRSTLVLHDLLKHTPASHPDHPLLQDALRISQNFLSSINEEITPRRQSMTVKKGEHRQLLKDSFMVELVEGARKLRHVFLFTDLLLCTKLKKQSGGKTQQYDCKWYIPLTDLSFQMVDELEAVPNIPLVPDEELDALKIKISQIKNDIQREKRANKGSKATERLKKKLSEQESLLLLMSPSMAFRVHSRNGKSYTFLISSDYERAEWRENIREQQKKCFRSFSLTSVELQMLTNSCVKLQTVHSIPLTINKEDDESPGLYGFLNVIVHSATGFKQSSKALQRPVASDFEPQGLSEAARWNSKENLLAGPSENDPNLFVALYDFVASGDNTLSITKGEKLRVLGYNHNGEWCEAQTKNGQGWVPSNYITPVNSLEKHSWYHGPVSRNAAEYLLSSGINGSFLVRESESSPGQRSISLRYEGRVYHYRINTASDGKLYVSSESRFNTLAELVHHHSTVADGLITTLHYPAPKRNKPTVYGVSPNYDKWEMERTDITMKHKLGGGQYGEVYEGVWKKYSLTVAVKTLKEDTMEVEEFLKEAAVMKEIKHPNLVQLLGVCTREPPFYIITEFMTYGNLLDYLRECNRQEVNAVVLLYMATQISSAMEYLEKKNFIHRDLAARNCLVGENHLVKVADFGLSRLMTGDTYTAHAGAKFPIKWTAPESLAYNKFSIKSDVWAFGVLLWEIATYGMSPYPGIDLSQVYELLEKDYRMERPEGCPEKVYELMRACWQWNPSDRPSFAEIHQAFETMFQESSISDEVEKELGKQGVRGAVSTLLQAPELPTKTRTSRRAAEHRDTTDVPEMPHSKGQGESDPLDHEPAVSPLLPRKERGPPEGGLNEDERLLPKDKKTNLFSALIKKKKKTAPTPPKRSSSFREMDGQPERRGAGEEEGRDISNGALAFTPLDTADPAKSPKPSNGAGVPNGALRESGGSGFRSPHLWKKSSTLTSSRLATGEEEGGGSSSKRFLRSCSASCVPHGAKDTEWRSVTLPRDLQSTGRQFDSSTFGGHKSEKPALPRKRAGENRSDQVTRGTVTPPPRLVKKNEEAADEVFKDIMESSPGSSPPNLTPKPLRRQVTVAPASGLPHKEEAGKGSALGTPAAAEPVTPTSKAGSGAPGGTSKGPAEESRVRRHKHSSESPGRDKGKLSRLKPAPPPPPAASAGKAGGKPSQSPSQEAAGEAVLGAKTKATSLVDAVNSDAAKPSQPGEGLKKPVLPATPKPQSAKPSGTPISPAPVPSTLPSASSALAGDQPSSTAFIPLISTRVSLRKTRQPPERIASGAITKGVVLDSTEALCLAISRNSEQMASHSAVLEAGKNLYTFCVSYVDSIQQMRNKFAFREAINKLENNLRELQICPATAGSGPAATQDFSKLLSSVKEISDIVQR

What is called IC50 is the concentration that inhibits the measured activity by half. Turning to `N#Cc1ccc(-c2cnc3ccc(-c4ccc(C(=O)N5CCOCC5)cc4)nn23)cc1` [Example 62, 4-(6-(4-(morpholine-4-carbonyl)phenyl)imidazo[1,2-b]pyridazin-3-yl)benzonitrile], the “eIF4G levels in brain sections from Nlgn3 knock-out mice” value in assay [1] is listed as “elevated eIF4G levels”; in [1] (listed as ECT7168) it was “elevation in eIF4G levels”. In addition, the IC50 is 3100 nM in assay [2] (K562, 144 h, 6 days, read-out: IC50 after 6 days of treatment, K562); 7500 nM in assay [2] (K562, 48 hours, read-out: IC50 after 48 hours of treatment, K562); 1700 nM in assay [3] (144 h, 6 days, read-out: IC50 after 6 days of treatment, D1.1); 1600 nM in assay [3] (48 hours, read-out: IC50 after 48 hours of treatment, D1.1); 200 nM with MV-4-11 (leukemia) (MV4-11, 144 h, 6 days, read-out: IC50 after 6 days of treatment, MV-4-11); 800 nM in the assay on MV-4-11 (leukemia) (MV4-11, 48 hours, read-out: IC50 after 48 hours of treatment, MV-4-11). For the same molecule, the IC50 was ≤ 2000 nM in assay [5]; 300 nM in assay [8] (144 h, 6 days, read-out: IC50 after 6 days of treatment, P116.c139); 800 nM in assay [8] (48 hours, read-out: IC50 after 48 hours of treatment, P116.c139). Further, in assay [2] (K562 cells over-expressing eIF4E), the “change of IC50 when treatment duration was extended from 48 hours to 6 days, K562” value is “reduced by more than half”. The figures for the “ultrasonic vocalizations of Nlgn3 knock-out male mice (autism-related behavior)” value with Nlgn3 knock-out mice and in the assay with Nlgn3 knock-out mice (listed as ETC7168) were “improves autism-relevant behavior” and “robust elevation of ultrasonic vocalizations”, respectively. For the same molecule, at BCR-ABL, the “BCR-ABL activity (phosphorylation of CrK1) in K562 cells” value was “decrease in BCR-ABL activity”. In addition, in assay [4], the “eIF4E phosphorylation in K562 (BC-CML cell line), Western blot” value is on record as “prevent eIF4E phosphorylation; also recorded: decrease in eIF4E phosphorylation”. Also, in assay [6], the “nuclear active beta-catenin in BC-CML primary cells, immunofluorescence” value is “decrease in nuclear beta-catenin accumulation”. Besides, in [7], the “eIF4E phosphorylation in cerebellar brain sections” value is recorded as “inhibit eIF4E phosphorylation”.
